The values that follow come from US20140128357A1, “METHODS OF PRODUCING AND USING BRASSINOSTEROIDS TO PROMOTE GROWTH, REPAIR AND MAINTENANCE OF SKELETAL MUSCLE AND SKIN” (Rutgers University, priority 2010, published 2014).

The test system of assay [1] is 3T3 Swiss fibroblast monolayers. Put plainly: Scratch wound closure in vitro. Format: cell-based, mouse. The conditions noted are these: for Scratch wound closure at 5 μM, % of control: 12 h (Table 6); for Wound Closure (% over control): 10 μM, 12 h (Table 4). How it is done: 3T3 fibroblasts were seeded into 24-well dishes at a concentration of 3×10^5 cells/ml and cultured to nearly confluent cell monolayers. On the day of the experiment, a linear wound was generated in the monolayer with a sterile 100 μl plastic pipette tip and any cellular debris was removed by washing cells once with sterile PBS. Fresh DMEM medium containing vehicle (0.1% ethanol), positive control (0.5% FBS), or various concentrations of the fractions, sub-fractions or pure compounds was added to a set of 3 wells per dose and incubated for 12 h at 37° C. with 5% CO2. Cells were then visualized with 20 μl of 10% methylene blue in PBS for 5 min. Three representative images of the scratched areas from each well were photographed at 0 and 12 h to estimate the scratch wound closure. Images were analyzed using ImageJ program (NIH, Bethesda, Md.) and % wound closure was calculated relative to vehicle control and was reported as wound closure % over control (Table 4). 3T3 Swiss fibroblast were seeded into 24-well tissue culture at a concentration of 3×10^5 cells/ml and cultured to nearly confluent cell monolayers. Then, a linear wound was generated in the monolayer with a sterile 100 μl plastic pipette tip. Any cellular debris was removed by washing with PBS. DMEM medium with vehicle (0.1% ethanol), FBS (1%, positive control), or various concentrations of brassinosteroids were added to a set of 3 wells per dose and incubated for 12 h at 37° C. with 5% CO2. Cells were visualized in 10% methylene blue for 5 minutes. Three representative images from each well of the scratched areas under each condition were photographed to estimate the relative migration of cells at 0 and 12 h post-treatment. Data were analyzed using ImageJ software available online from the National Institutes of Health (rsbweb.nih.gov/ij/) by calculating the percentage of scratch closure at each dose point relative to control.

For a further assay, the system named is L6 rat myotubes. Put plainly: Protein degradation, release of acid-soluble [3H]-phenylalanine. The conditions noted are these: 10 μM; for Protein degradation (% decrease over control): 4 h. Format: cell-based. As to the method: In some aspects, cell culture experiments were carried out. Rat L6 skeletal muscle cell line CRL-1458 was obtained from ATCC (Manassas, Va.). Myoblasts were routinely maintained in Dulbecco's modified Eagle's medium (DMEM) containing 10% FBS and 0.1% penicillin-streptomycin at 37° C. and 5% CO2. Cells were subcultured into 24-well plates for protein synthesis, degradation, and cell viability studies and into 6-well plates for Western blot analyses (Greiner Bio One, Monroe, N.C.). Once cells reached 90% confluence, differentiation was induced by lowering the serum concentration to 2%, and medium was changed every 2 days. […] NIH 3T3 murine embryonic fibroblast cell line (ATCC #CCL-92) was maintained in DMEM and 10% FBS at 37° C. in 5% CO2, and passaged every 3-4 days.
In various aspects, protein degradation is measured to determine the effect of brassinosteroid on a particular protein. All known methods for measuring protein degradation are included in the methods of the disclosure. The effect of brassinosteroids on protein degradation was investigated in fully differentiated myotubes as described by Fawcett et al. (Arch. Biochem. Biophys. 385:357-363, 2001) with slight modifications. Fully differentiated myotubes were incubated for 16 h to allow labeling of cellular proteins with 1.5 μCi/mL [^3H]-phenylalanine. […] The incubation was stopped by placing the cells on ice, and protein in the medium was precipitated with 5% trichloroacetic acid. Specific radioactivity of protein-free phenylalanine was quantified using liquid scintillation counter LS 6500 (Beckman Coulter, Fullerton, Calif.) and normalized to mg of total cell protein determined by BCA protein assay (Pierce Biotechnology, Rockford, Ill.).
The bioactivity of HB and its analogs (as shown in Table 3) were also evaluated by measuring decreases in protein degradation in the L6 rat skeletal muscle cells in vitro. Cells were labeled overnight with [^3H]-phenylalanine and subsequently treated for 4 h in triplicate with vehicle (0.1% ethanol) or test compound (10 μM), and protein degradation was assessed as release of acid-soluble [^3H]-phenylalanine into the media normalized by total protein (Table 3).

Molecules are shown by their SMILES.

For the compound `CC[C@@H](C(C)C)[C@H](O)[C@@H](O)[C@@H](C)[C@H]1CC[C@H]2[C@@H]3CC(=O)[C@H]4C[C@H](O)[C@H](O)C[C@]4(C)[C@H]3CC[C@]12C` [Compound 2, (22S,23S,24S)-2α,3α, 22,23-tetrahydroxy-24-ethyl-5α-cholestan-6-one], in assay [1], the “Scratch wound closure at 5 μM, % of control” value was 32.9 ± 4.1 % and the “Wound Closure (% over control)” value is 32.9 ± 14.1 %. Further, the “Protein degradation (% decrease over control)” value in the assay on L6 rat myotubes is −23.1 ± 4.2 %.
Turning to `CC[C@@H](C(C)C)[C@H](O)[C@@H](O)[C@@H](C)[C@H]1CC[C@H]2[C@@H]3COC(=O)[C@H]4C[C@H](O)[C@H](O)C[C@]4(C)[C@H]3CC[C@]12C` [Compound 1, (22S,23S,24S)-2α,3α,22,23-tetrahydroxy-24 ethyl-β-homo-7-oxo-5α-cholestane-6-one], the figures for the “Scratch wound closure at 5 μM, % of control” value in assay [1] and in assay [1] (listed as HB) were 30 ± 4.2 % and 30±4.2%, respectively. Further, in assay [1], the “Wound Closure (% over control)” value is listed as 30.2 ± 11.2 %. Moreover, the “Protein degradation (% decrease over control)” value with L6 rat myotubes is −24.1 ± 5.5 %. For the same compound, the “decrease in protein degradation vs control levels” value in the assay on L6 rat myotubes (4 h (FIG. 2C)) amounted to 9.5±0.9%.
On to `CC[C@@H](C(C)C)[C@H](O)[C@@H](O)[C@@H](C)[C@H]1CC[C@H]2[C@@H]3CC(=O)N[C@H]4C[C@H](O)[C@H](O)C[C@]4(C)[C@H]3CC[C@]12C` [Compound 5, (22S,23S,24S)-2α,3α-22,23-tetrahydroxy-24-ethyl-B-homo-6-aza-5α-cholestan-7-one], for which the “Scratch wound closure at 5 μM, % of control” value in assay [1] turned out to be 13.0 ± 0.7%. In assay [1] (0.1-10 μM, 12 h), the “fibroblast migration activity in words” value is listed as “no effect on fibroblast migration”. Moreover, in the assay on L6 rat myotubes, the “effect of structural modification on protein degradation activity, in words” value was “only a minor effect on its biological activity” and the “Protein degradation (% decrease over control)” value is reported as −13.6 ± 3.8%.
